Measurements reported in ChEMBL document CHEMBL3044992, “Design, synthesis, and docking studies of novel ofloxacin analogues as antimicrobial agents” (2012).
≈ marks a conversion by molar mass, not a printed value.

Assays:
Format in all cases: functional
Bacillus subtilis = assay: Antibacterial activity against Bacillus subtilis after 24 hr by two-fold serial dilution method
Klebsiella pneumoniae = assay: Antibacterial activity against Klebsiella pneumoniae after 24 hr by two-fold serial dilution method
Pseudomonas aeruginosa = assay: Antibacterial activity against Pseudomonas aeruginosa after 24 hr by two-fold serial dilution method
[1] = tested on: Staphylococcus epidermidis; assay: Antibacterial activity against Staphylococcus epidermidis after 24 hr by two-fold serial dilution method
Candida albicans [2] = assay: Antifungal activity against Candida albicans at 50 ug/ml after 48 hr […]; details: read-out: IZ
Candida albicans [3] = assay: Antifungal activity against Candida albicans at 100 ug/ml after 48 hr […]; details: read-out: IZ
Staphylococcus aureus = assay: Antibacterial activity against Staphylococcus aureus after 24 hr by two-fold serial dilution method
Escherichia coli = assay: Antibacterial activity against Escherichia coli after 24 hr by two-fold serial dilution method
Candida albicans [4] = assay: Antifungal activity against Candida albicans at 25 ug/ml after 48 hr […]; details: read-out: IZ

SMILES | MIC (Bacillus subtilis) [µg/mL] | MIC (Klebsiella pneumoniae) [µg/mL] | MIC (Pseudomonas aeruginosa) [µg/mL] | MIC [1] [µg/mL] | MIC (Staphylococcus aureus) [µg/mL] | MIC (Escherichia coli) [µg/mL] | zone of inhibition at 50 µg/mL (Candida albicans [2]) [mm] | zone of inhibition at 100 µg/mL (Candida albicans [3]) [mm] | zone of inhibition at 25 µg/mL (Candida albicans [4]) [mm]
CC1COc2c(N3CCN(C)CC3)c(F)cc3c(=O)c(-c4nn(CCC(=O)Cc5cccc([N+](=O)[O-])c5)c(=S)n4N)cn1c23 (stereo not given) | 0.5 (≈ 0.803 µM) | 0.12 (≈ 0.193 µM) | 0.25 (≈ 0.401 µM) | 0.5 (≈ 0.803 µM) | 0.25 (≈ 0.401 µM) | 1 (≈ 1.61 µM) | 18 | 21 | 16
CC1COc2c(N3CCN(C)CC3)c(F)cc3c(=O)c(-c4nn(CCC(=O)c5ccc(N)cc5)c(=S)o4)cn1c23 (stereo not given) | 0.5 (≈ 0.886 µM) | 0.5 (≈ 0.886 µM) | 0.5 (≈ 0.886 µM) | 0.5 (≈ 0.886 µM) | 0.25 (≈ 0.443 µM) | 0.25 (≈ 0.443 µM) | 18 | 21 | 17
CC1COc2c(N3CCN(C)CC3)c(F)cc3c(=O)c(C(=O)O)cn1c23 (stereo not given) [OFLOXACIN] | 1 (≈ 2.77 µM) | 0.06 (≈ 0.166 µM) | – | 0.5 (≈ 1.38 µM) | 0.25 (≈ 0.692 µM) | – | 26 | 28 | 21
CC(=O)CCn1nc(-c2cn3c4c(c(N5CCN(C)CC5)c(F)cc4c2=O)OCC3C)n(N)c1=S (stereo not given) | 0.5 (≈ 0.997 µM) | 0.12 (≈ 0.239 µM) | 0.5 (≈ 0.997 µM) | 0.5 (≈ 0.997 µM) | 3.12 (≈ 6.23 µM) | 0.5 (≈ 0.997 µM) | 18 | 22 | 16
CC(=O)CCn1nc(-c2cn3c4c(c(N5CCN(C)CC5)c(F)cc4c2=O)OCC3C)oc1=S (stereo not given) | 0.5 (≈ 1.03 µM) | 0.12 (≈ 0.246 µM) | 0.25 (≈ 0.513 µM) | 0.25 (≈ 0.513 µM) | 0.25 (≈ 0.513 µM) | 0.25 (≈ 0.513 µM) | 18 | 22 | 15

The next lines start with results.

MIC (Bacillus subtilis) [µg/mL] | MIC (Klebsiella pneumoniae) [µg/mL] | MIC (Pseudomonas aeruginosa) [µg/mL] | MIC [1] [µg/mL] | MIC (Staphylococcus aureus) [µg/mL] | MIC (Escherichia coli) [µg/mL] | SMILES | zone of inhibition at 50 µg/mL (Candida albicans [2]) [mm] | zone of inhibition at 100 µg/mL (Candida albicans [3]) [mm] | zone of inhibition at 25 µg/mL (Candida albicans [4]) [mm]
0.5 (≈ 0.91 µM) | 0.25 (≈ 0.455 µM) | 2 (≈ 3.64 µM) | 0.5 (≈ 0.91 µM) | 0.25 (≈ 0.455 µM) | 1 (≈ 1.82 µM) | CC1COc2c(N3CCN(C)CC3)c(F)cc3c(=O)c(-c4nn(CCC(=O)c5ccccc5)c(=S)o4)cn1c23 (stereo not given) | 19 | 22 | 16
0.5 (≈ 1.24 µM) | 1 (≈ 2.48 µM) | 1 (≈ 2.48 µM) | 0.25 (≈ 0.62 µM) | 0.25 (≈ 0.62 µM) | 1 (≈ 2.48 µM) | CC1COc2c(N3CCN(C)CC3)c(F)cc3c(=O)c(C(=O)NNC=O)cn1c23 (stereo not given) | 21 | 23 | 18
0.5 (≈ 0.863 µM) | 0.12 (≈ 0.207 µM) | 0.5 (≈ 0.863 µM) | 0.5 (≈ 0.863 µM) | 0.25 (≈ 0.431 µM) | 1 (≈ 1.73 µM) | CC1COc2c(N3CCN(C)CC3)c(F)cc3c(=O)c(-c4nn(CCC(=O)c5ccccc5O)c(=S)n4N)cn1c23 (stereo not given) | 17 | 21 | 15
0.5 (≈ 1 µM) | 0.12 (≈ 0.241 µM) | 0.25 (≈ 0.502 µM) | 0.5 (≈ 1 µM) | 0.125 (≈ 0.251 µM) | 0.5 (≈ 1 µM) | CC1COc2c(N3CCN(C)CC3)c(F)cc3c(=O)c(C(=O)N/N=C/c4ccccc4Cl)cn1c23 (stereo not given) | 18 | 22 | 16
0.5 (≈ 0.983 µM) | 0.5 (≈ 0.983 µM) | 0.5 (≈ 0.983 µM) | 0.25 (≈ 0.492 µM) | 0.25 (≈ 0.492 µM) | 0.5 (≈ 0.983 µM) | CC1COc2c(N3CCN(C)CC3)c(F)cc3c(=O)c(C(=O)N/N=C/c4cccc([N+](=O)[O-])c4)cn1c23 (stereo not given) | 17 | 20 | 15
0.5 (≈ 1.04 µM) | 1 (≈ 2.09 µM) | 0.12 (≈ 0.25 µM) | 0.25 (≈ 0.521 µM) | 0.25 (≈ 0.521 µM) | 1 (≈ 2.09 µM) | CC1COc2c(N3CCN(C)CC3)c(F)cc3c(=O)c(C(=O)N/N=C/c4ccccc4O)cn1c23 (stereo not given) | 18 | 21 | 15
0.5 (≈ 1.01 µM) | 0.5 (≈ 1.01 µM) | 0.5 (≈ 1.01 µM) | 0.25 (≈ 0.507 µM) | 0.125 (≈ 0.253 µM) | 0.5 (≈ 1.01 µM) | COc1ccc(/C=N/NC(=O)c2cn3c4c(c(N5CCN(C)CC5)c(F)cc4c2=O)OCC3C)cc1 (stereo not given) | 20 | 23 | 18
0.5 (≈ 1.08 µM) | 0.25 (≈ 0.539 µM) | 1 (≈ 2.16 µM) | 0.25 (≈ 0.539 µM) | 0.125 (≈ 0.27 µM) | 1 (≈ 2.16 µM) | CC1COc2c(N3CCN(C)CC3)c(F)cc3c(=O)c(C(=O)N/N=C/c4ccccc4)cn1c23 (stereo not given) | 18 | 21 | 15
